Results reported in patent US11274090B2, “P300/CBP HAT inhibitors” (Constellation Pharmaceuticals, Inc., priority 2018, dated 2022).

How the values were obtained:
[1] = target: full length p300 (Homo sapiens (Human), UniProt Q09472); test: full length p300 SPA assay; format: biochemical; settings: average of at least 2 replicate titrations, read-out: FL P300 IC50
Procedure: Reactions were initiated with 12.5 μL 2 μM biotinylated H3(1-21) peptide (New England Peptide) and run for 1 hr at RT, then quenched with 20 μL stop solution (200 mM Tris pH 8.0, 200 mM EDTA, 2M NaCl, 160 μM anacardic acid). 35 μL of the reaction volume was transferred to a 384-well streptavidin FlashPlate (PerkinElmer) using a Bravo liquid handler (Velocity 11) and incubated for 1.5 hr at RT. Plates were aspirated, washed with 95 μL wash buffer (15 mM Tris pH 8.5, 0.069 μM Brij-35), aspirated, sealed, and scintillation counts read on a Topcount (PerkinElmer). Data were analyzed in Genedata to determine inhibitor IC50 values.
The full length p300 SPA assay was run following the same protocol as p300 HAT SPA assay, but used 6 nM purified full length p300 (purchased from Active Motif) in place of the purified p300-HAT domain.

[2] = target: p300 HAT domain (residues 1287-1666) (Homo sapiens (Human), UniProt Q09472); test: p300 HAT SPA assay (scintillation proximity assay, acetylation of biotinylated H3(1-21) peptide); format: biochemical; settings: average of at least 2 replicate titrations
p300 HAT domain (residues 1287-1666), sequence (Q09472 1287-1666): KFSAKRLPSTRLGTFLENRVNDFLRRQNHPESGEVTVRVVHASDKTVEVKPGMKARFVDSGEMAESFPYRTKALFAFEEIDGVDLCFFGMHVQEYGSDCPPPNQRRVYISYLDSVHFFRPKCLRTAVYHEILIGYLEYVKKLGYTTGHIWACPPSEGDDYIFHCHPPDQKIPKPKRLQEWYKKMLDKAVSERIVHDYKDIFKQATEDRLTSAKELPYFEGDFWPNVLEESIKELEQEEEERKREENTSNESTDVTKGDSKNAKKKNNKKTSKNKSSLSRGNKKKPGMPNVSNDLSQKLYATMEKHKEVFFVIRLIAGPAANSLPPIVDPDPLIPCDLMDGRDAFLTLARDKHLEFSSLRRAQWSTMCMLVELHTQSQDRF
How it was run: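 Purified p300 HAT domain reaction transferred to streptavidin plates to capture biotinylated H3(1-21) peptide, incubated 1.5 hr at RT, and read by scintillation proximity. IC50 values derived from concentration-response data.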

full length p300, sequence (Q09472 whole entry): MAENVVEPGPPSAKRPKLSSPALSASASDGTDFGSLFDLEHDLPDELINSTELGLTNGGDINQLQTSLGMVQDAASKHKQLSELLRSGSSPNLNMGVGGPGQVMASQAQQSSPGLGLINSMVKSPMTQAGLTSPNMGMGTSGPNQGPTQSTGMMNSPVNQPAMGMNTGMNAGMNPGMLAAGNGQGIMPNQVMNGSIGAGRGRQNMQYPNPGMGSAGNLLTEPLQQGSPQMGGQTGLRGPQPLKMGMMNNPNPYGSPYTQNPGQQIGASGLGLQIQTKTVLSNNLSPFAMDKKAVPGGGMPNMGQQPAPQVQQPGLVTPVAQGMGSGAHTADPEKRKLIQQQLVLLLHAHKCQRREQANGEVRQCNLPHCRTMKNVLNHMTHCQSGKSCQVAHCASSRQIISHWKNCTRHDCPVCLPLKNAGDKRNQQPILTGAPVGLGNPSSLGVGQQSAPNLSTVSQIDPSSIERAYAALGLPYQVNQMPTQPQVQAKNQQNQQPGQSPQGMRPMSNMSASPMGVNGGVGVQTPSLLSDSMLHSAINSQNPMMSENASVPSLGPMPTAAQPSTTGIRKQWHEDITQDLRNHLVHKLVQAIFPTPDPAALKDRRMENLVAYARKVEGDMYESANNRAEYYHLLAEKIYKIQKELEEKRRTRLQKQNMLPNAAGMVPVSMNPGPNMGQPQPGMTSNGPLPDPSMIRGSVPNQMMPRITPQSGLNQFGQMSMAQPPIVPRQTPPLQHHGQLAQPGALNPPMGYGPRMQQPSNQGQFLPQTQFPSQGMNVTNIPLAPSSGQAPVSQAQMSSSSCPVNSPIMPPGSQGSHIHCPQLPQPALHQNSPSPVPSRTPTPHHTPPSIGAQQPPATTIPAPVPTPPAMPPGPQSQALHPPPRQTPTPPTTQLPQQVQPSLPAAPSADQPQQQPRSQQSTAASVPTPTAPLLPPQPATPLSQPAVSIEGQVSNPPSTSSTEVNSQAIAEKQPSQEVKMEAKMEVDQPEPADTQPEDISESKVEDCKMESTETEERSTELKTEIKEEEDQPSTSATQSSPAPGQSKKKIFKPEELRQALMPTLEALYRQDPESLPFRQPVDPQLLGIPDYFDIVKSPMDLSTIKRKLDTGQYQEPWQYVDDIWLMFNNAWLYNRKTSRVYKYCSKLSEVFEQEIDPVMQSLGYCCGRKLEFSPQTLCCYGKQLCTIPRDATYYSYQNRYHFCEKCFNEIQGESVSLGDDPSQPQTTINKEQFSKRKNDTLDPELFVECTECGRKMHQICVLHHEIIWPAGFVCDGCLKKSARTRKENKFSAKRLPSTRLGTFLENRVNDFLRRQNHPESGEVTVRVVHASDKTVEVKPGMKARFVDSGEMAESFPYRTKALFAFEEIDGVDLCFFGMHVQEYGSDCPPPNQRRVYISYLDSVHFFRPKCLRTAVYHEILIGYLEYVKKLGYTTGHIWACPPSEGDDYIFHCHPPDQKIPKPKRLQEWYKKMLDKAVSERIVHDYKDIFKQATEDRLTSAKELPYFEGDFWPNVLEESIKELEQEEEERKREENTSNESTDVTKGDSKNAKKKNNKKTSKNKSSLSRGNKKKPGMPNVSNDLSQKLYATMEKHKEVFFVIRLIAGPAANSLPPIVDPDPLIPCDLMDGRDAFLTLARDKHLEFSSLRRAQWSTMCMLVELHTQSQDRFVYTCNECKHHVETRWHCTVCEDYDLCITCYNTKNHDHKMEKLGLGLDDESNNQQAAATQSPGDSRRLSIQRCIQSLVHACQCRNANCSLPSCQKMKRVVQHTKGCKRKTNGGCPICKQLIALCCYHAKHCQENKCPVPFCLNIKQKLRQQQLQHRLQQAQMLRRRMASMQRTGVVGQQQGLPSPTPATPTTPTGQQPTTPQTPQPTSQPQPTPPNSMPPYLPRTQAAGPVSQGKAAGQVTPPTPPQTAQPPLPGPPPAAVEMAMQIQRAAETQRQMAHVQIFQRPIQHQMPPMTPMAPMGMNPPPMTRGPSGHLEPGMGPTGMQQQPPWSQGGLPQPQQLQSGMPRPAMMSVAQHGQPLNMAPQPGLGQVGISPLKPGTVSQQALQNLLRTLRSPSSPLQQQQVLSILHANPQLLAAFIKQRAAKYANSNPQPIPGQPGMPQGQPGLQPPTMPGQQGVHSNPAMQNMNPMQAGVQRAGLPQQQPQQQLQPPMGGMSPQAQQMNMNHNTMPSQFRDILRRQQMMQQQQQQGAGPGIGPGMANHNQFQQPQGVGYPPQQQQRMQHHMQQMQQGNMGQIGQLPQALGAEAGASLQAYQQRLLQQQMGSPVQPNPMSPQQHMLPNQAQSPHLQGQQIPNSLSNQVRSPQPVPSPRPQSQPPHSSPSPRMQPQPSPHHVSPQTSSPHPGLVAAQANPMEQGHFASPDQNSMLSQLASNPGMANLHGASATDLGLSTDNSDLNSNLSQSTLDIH

Row | Compound | IC50 [1] | IC50 [2]
1 | Cn1cnc(-c2ccc(NC(=O)C(NCCc3ccc(C#N)cc3)c3ccccc3)nc2)c1 (single isomer, unassigned) [13 Isomer 1] | 273 nM | > 5000 nM
2 | CS(=O)(=O)N1CCN(c2ccc(NC(=O)C(NCCc3ccc(C#N)cc3)c3ccccc3)nc2)CC1 (single isomer, unassigned) [68 Isomer 2] | 1.9 nM | 70 nM
3 | CN1CCN(c2ccc(NC(=O)C(NCCc3ccc(Cl)cc3)c3ccccc3)nc2)CC1=O (single isomer, unassigned) [45 Isomer 1] | 1.46 nM | 26 nM
4 | N#Cc1ccc(CCNC(C(=O)Nc2ccc(-c3ccccc3)cn2)c2ccccc2)cc1 (single isomer, unassigned) [34 Isomer 1] | 7250 nM | > 5000 nM
5 | COC1(C)CCN(c2ccc(NC(=O)C(NCCc3ccc(C#N)cc3)c3ccccc3)nc2)CC1 (single isomer, unassigned) [53 Isomer 1] | 5.16 nM | 121 nM
6 | Cc1cnn(-c2ccc(NC(=O)C(NCC(C)c3ccc(C#N)cc3)c3ccccc3)nc2)c1 (single isomer, unassigned) [62 Isomer 4] | < 2 nM | 52.6 nM
7 | Cc1ccc(CCNC(C(=O)Nc2ccc(-c3cnn(C)c3)cn2)c2ccccc2)cc1 (single isomer, unassigned) [48 Isomer 2] | 31.8 nM | 1560 nM
8 | CC(=O)N1CCN(c2ccc(NC(=O)C(NCCc3ccc(C#N)cc3)c3ccccc3)nc2)CC1 (single isomer, unassigned) [72 Isomer 2] | 46.9 nM | > 2000 nM
9 | COC1(C)CCN(c2ccc(NC(=O)C(NCCc3ccc(C#N)cc3)c3ccccc3)nc2)CC1 (single isomer, unassigned) [53 Isomer 2] | > 1000 nM | > 2000 nM
10 | Cc1ccn(-c2ccc(NC(=O)C(NCC(C)c3ccc(C#N)cc3)c3ccccc3)nc2)n1 (single isomer, unassigned) [61 Isomer 1] | 120 nM | 2410 nM
11 | CN1CCN(c2ccc(NC(=O)C(NCCc3ccc(C#N)cc3)c3ccccc3)nc2)CC1=O (single isomer, unassigned) [44 Isomer 2] | 2.66 nM | 41.6 nM
12 | Cc1ccn(-c2ccc(NC(=O)C(NCC(C)c3ccc(C#N)cc3)c3ccccc3)nc2)n1 (single isomer, unassigned) [61 Isomer 4] | 68.5 nM | 1340 nM
13 | Cc1cnn(-c2ccc(NC(=O)C(NCC(C)c3ccc(C#N)cc3)c3ccccc3)nc2)c1 (single isomer, unassigned) [62 Isomer 1] | 224 nM | > 2000 nM
14 | CN1CCN(c2ccc(NC(=O)C(NCCc3ccc(Cl)cc3)c3ccccc3)nc2)CC1=O (single isomer, unassigned) [45 Isomer 2] | 43.1 nM | 1020 nM
15 | Cn1ccc(-c2ccc(NC(=O)C(NCCc3ccc(C#N)cc3)c3ccccc3)nc2)n1 (single isomer, unassigned) [14 Isomer 1] | 176 nM | > 5000 nM
16 | Cn1cc(-c2cnc(NC(=O)C(NCCc3ccc(C#N)cc3)c3ccccc3)cc2F)cn1 (single isomer, unassigned) [74 Isomer 1] | 214 nM | > 2000 nM
17 | COC1CN(c2ccc(NC(=O)C(NCCc3ccc(C#N)cc3)c3ccccc3)nc2)C1 (single isomer, unassigned) [31 Isomer 1] | 2.57 nM | 71.4 nM
18 | Cc1ccn(-c2ccc(NC(=O)C(NCC(C)c3ccc(C#N)cc3)c3ccccc3)nc2)n1 (single isomer, unassigned) [61 Isomer 3] | < 2 nM | 31.5 nM
19 | Cn1cc(-c2cnc(NC(=O)C(NCCc3ccc(C#N)cc3)c3ccccc3)c(F)c2)cn1 (single isomer, unassigned) [75 Isomer 2] | 387 nM | > 2000 nM
20 | Cc1ccn(-c2ccc(NC(=O)C(NCC(C)c3ccc(C#N)cc3)c3ccccc3)nc2)n1 (single isomer, unassigned) [61 Isomer 2] | 123 nM | > 5000 nM
21 | COC1CN(c2ccc(NC(=O)C(NCCc3ccc(C#N)cc3)c3ccccc3)nc2)C1 (single isomer, unassigned) [31 Isomer 2] | 167 nM | > 5000 nM
22 | CN1CCN(c2ccc(NC(=O)C(NCCc3ccc(C#N)cc3)c3ccccc3)nc2)CC1=O (single isomer, unassigned) [44 Isomer 1] | 278 nM | > 2000 nM
23 | COc1cc(NC(=O)C(NCCc2ccc(C#N)cc2)c2ccccc2)ccc1-c1cnn(C)c1 (single isomer, unassigned) [25 Isomer 1] | 40.1 nM | 1590 nM

More lines, now with the values ahead:

Row | IC50 [1] | IC50 [2] | Compound
24 | < 2 nM | 31.8 nM | Cn1cc(-c2ccc3c(c2)CCN3C(=O)C(NCCc2ccc(C#N)cc2)c2ccccc2)cn1 (single isomer, unassigned) [152 Isomer 2]
25 | 3.3 nM | 26.1 nM | C[C@H](CNC(C(=O)Nc1ccc(C2CC(=O)N(C)C2)cn1)c1ccccc1)c1ccc(C#N)cc1 (single isomer, unassigned) [109 Isomer 4]
26 | 0.75 nM | 6.4 nM | CC(CNC(C(=O)Nc1ccc(-c2cnn(C)c2)cn1)c1ccccc1)c1ccc(C#N)c(F)c1 (single isomer, unassigned) [91 Isomer 2]
27 | < 3.24 nM | 14 nM | Cc1nn(C)c(C)c1-c1ccc(NC(=O)C(NC[C@@H](C)c2ccc(C#N)cc2)c2ccccc2)nc1 (single isomer, unassigned) [130 Isomer 2]
28 | 0.74 nM | 10.2 nM | (R, S)- and (S, S)-2-((2- (4- cyanophenyl)propyl)ami- no)-N-(5-(1,3-dimethyl- 1H-pyrazol-4-yl)pyridin- 2-yl)-2-phenylacetamide [113 Isomer 2]
29 | 13500 nM | > 2000 nM | Cn1cc(-c2cccc(NC(=O)C(NCCc3ccc(C#N)cc3)c3ccccc3)n2)cn1 (single isomer, unassigned) [123 Isomer 2]
30 | 2020 nM | > 2000 nM | Cn1cc(-c2cccc(NC(=O)C(NCCc3ccc(C#N)cc3)c3ccccc3)n2)cn1 (single isomer, unassigned) [123 Isomer 1]
31 | 1.2 nM | 32.7 nM | Cc1cc(NC(=O)C(NC[C@@H](C)c2ccc(C#N)cc2)c2ccccc2)ncc1-c1cnn(C)c1 (single isomer, unassigned) [115 Isomer 2]
32 | 0.7 nM | 16.4 nM | C[C@H](CNC(C(=O)Nc1ccc(-c2ccn(C)c(=O)c2)cn1)c1ccccc1)c1ccc(C#N)cc1 (single isomer, unassigned) [105 Isomer 2]
33 | < 3.24 nM | 19 nM | Cn1cc(-c2ccc(NC(=O)C(NCC(c3ccc(C#N)cc3)C(F)(F)F)c3ccccc3)nc2)cn1 (single isomer, unassigned) [149 Isomer 2]
34 | 0.73 nM | 10.5 nM | Cc1c(-c2ccc(NC(=O)C(NC[C@@H](C)c3ccc(C#N)cc3)c3ccccc3)nc2)cnn1C (single isomer, unassigned) [114 Isomer 2]
35 | 40.6 nM | 966 nM | Cn1cc(-c2ccc3c(c2)CCN3C(=O)C(NCCc2ccc(C#N)cc2)c2ccccc2)cn1 (single isomer, unassigned) [152 Isomer 1]
36 | < 3.24 nM | 26 nM | C[C@H](CNC(C(=O)Nc1ccc(-c2cnn(C)c(=O)c2)cn1)c1ccccc1)c1ccc(C#N)cc1 (single isomer, unassigned) [139 Isomer 1]
